Experiments:
Type in all cases: in vivo, mouse
[1] = system: mice subjected to neonatal HI injury; assay: Histomorphologic evaluation of hippocampus volume after neonatal HI; settings: WT or C3aR−/− mice, regardless of treatment length, P51-55
Procedure: On P51 (long-term study) or P55 (short-term study), mice were deeply anesthetized with thiopental [Pentothal Sodium (0.01 ml/g body weight), Hospira, Ill., USA)] and transcardially perfused with 0.9% saline, followed by 4% paraformaldehyde (PFA) in 0.1 M PBS. Brains were removed and post-fixed in 4% PFA at 4° C. for 24 h followed by 70% ethanol for 24 h. Tissue was processed using an automatic tissue processor (SAKURA Tissue Tek VIP 3000, Tournai, Belgium) and embedded in paraffin. Brains were cut at room temperature into 8-μm serial coronal sections using a sliding microtome (Microm HM 450, Thermo Scientific, Massachusetts, USA), attached to silane coated slides and dried at RT.
For the histomorphologic evaluation, slides were incubated for 1 h at 65° C. and stained with haematoxylin and eosin. A wide-field microscope (Nikon Eclipse 80i; Nikon Instruments Inc., Tokyo, Japan) equipped with a color camera (Nikon DXM 1200F) was used to obtain images of brain sections 208 μm apart between −1.60 mm and −2.02 mm relative to Bregma; 3 sections/mouse. ImageJ 1.46r software was used to trace around the ipsilesional and contralesional hippocampus and hemisphere. Volumes were calculated according to the Cavalieri's principle, where V=ΣA×P×T (Svedin et al., 2007) and hippocampus volume/hemisphere volume ratio was calculated for each hemisphere.

[2] = system: synapsin I+ puncta; assay: Synapsin I immunostaining of dorsal hippocampus after neonatal HI; settings: between groups or hemispheres
Procedure: Neuronal nuclei (NeuN), growth associated protein 43 (GAP-43), synapsin I (SYN), vesicular glutamate transporter 1 (VGLUT1), Glial Fibrillary Acidic Protein (GFAP) and ionized calcium-binding adapter molecule 1 (Iba-1) were visualized in the cornu ammonis (CA) and dentate gyrus (DG) of the dorsal hippocampus by immunohistochemistry. Briefly, following heat-induced antigen retrieval with 0.01 M citrate buffer (pH 6, 0.05% Tween 20) for 3×5 min, sections were washed 3×5 min with PBS-T (0.05% Tween 20), non-specific protein binding was reduced by incubation with blocking buffer [4% normal donkey serum (NeuN and Iba-1), 1% bovine serum albumin (GAP-43 and SYN), 3% normal goat serum (VGLUT1), 2% bovine serum albumin (GFAP) in PBS-T] for 1 h at room temperature (RT). […]
(§1) NeuN positive cells, GFAP positive relative area, as well as GAP-43, SYN, and VGLUT1 positive puncta were counted by using MetaMorph software (ver. 7.8.6, Molecular Devices, CA, USA) on confocal images obtained with a 20× (NeuN and GFAP) or 63× (GAP-43, SYN, and VGLUT1) objective (Carl Zeiss LSM 700 Laser Scanning Microscope, Jena, Germany). Iba-1 positive cell somata were counted on bright field images obtained with a 20× objective (Nikon Eclipse 80i). […]

[3] = system: NeuN+ cells; assay: NeuN positive cell density in dorsal hippocampus after neonatal HI
Procedure: Neuronal nuclei (NeuN), growth associated protein 43 (GAP-43), synapsin I (SYN), vesicular glutamate transporter 1 (VGLUT1), Glial Fibrillary Acidic Protein (GFAP) and ionized calcium-binding adapter molecule 1 (Iba-1) were visualized in the cornu ammonis (CA) and dentate gyrus (DG) of the dorsal hippocampus by immunohistochemistry. Briefly, following heat-induced antigen retrieval with 0.01 M citrate buffer (pH 6, 0.05% Tween 20) for 3×5 min, sections were washed 3×5 min with PBS-T (0.05% Tween 20), non-specific protein binding was reduced by incubation with blocking buffer [4% normal donkey serum (NeuN and Iba-1), 1% bovine serum albumin (GAP-43 and SYN), 3% normal goat serum (VGLUT1), 2% bovine serum albumin (GFAP) in PBS-T] for 1 h at room temperature (RT). Tissue was then incubated with the primary antibody [anti-NeuN biotinylated (1:200, MAB 377B, Millipore, Mass., USA), anti-GAP-43 (1:1000, MAB347, Millipore, Mass., USA), anti-SYN (1:150, SC-7379, Santa Cruz, Calif., USA), anti-VGLUT1 (1:500, AB5905, Millipore, Mass., USA), anti-GFAP (1:200, Z0334, Dako, Stockholm, Sweden), anti-Iba-1 (1:500, 019-19741, Wako, Osaka, Japan)] in blocking buffer overnight at 4° C. One slide per staining batch was incubated only with blocking buffer without primary antibody and used as a negative control. Next, sections were washed 3×5 min with PBS-T and incubated with the secondary antibody [rabbit-anti mouse biotinylated Ig (1:200, GAP-43, E0354, Dako, Stockholm, Sweden), donkey-anti goat biotinylated Ig (1:200, SYN, 705065147, Jackson ImmunoResearch Inc., PA, USA), Alexa Fluor 488 goat-anti guinea pig Ig (1:500, VGLUT1, A11073, Molecular Probes, Oregon, USA), Alexa Fluor 488 goat-anti rabbit (1:2000, GFAP, A11034, Molecular Probes, Oregon, USA), donkey-anti rabbit biotinylated (1:500, Iba-1, 711-065-152, Jackson ImmunoResearch Inc., PA, USA), in blocking buffer for 1 h at RT. After washing 3×5 min with PBS-T, sections were incubated with Streptavidin-Cy3 (1:100 (GAP-43, SYN), 1:300 (NeuN), S6402, Sigma-Aldrich, Missouri, USA) in blocking buffer for 1 h at RT. Then, sections were washed 3×5 min with PBS-T, mounted with Pro Long Gold (P36931, Life Technologies, CA, USA) and cover slipped for 24 h before being sealed with nail polish. […]
as §1

“C3a: Purified human C3a peptide (Complement Technologies), C3a receptor agonist, amino acid sequence SEQ ID NO: 1” was tested, and the “HI-induced loss of hippocampal tissue” value [1] was “did not affect HI-induced loss of hippocampal tissue”, the “density or average area of synapsin I+ puncta in CA1 or dentate gyrus” value [2] was “did not find any differences” and the “neuronal density in CA1 and CA3, ipsilesional vs contralesional hemisphere” value ([3]; both HI groups, p<0.01 and p<0.05) was “decreased in the ipsilesional hemisphere”. The “NeuN+ cell density in the DG” value ([3]; data not shown) was “No effect”, the “number of NeuN+ cells in injured CA3 vs sham mice” value ([3]; p<0.01) was “lower compared with sham mice” and the “number of NeuN+ cells in injured CA1 vs sham mice” value ([3]; p<0.05 for PBS) was “of PBS but not C3a treated mice was lower compared with sham mice”.
